# Where “and” joins values, the source holds several entries; their conditions need not be identical. Equal values may be shown once. Read-outs that look alike come from different tables or passages of the source.
# What was measured:
# beta1 (h) = target: T1, beta1 (h) (Homo sapiens, UniProt P08588); test: In vitro CEREP profiling, beta1 (h) (agonist radioligand); format: binding; settings: test compound 10 uM
# T1 construct: purchased Eurofins Cerep (SafetyScreen44), recognised from the panel format
# Excerpt: (§1) Supplement media-1.zip/Safety_Panel_Profile.csv, table | column: perc_inhibition
# [1] = test system: SARS-CoV-2, isolate USA-WA1/2020; test: microbe, parasite or virus in culture; format: cell-based
# MERS-CoV = test: microbe, parasite or virus in culture; format: cell-based; settings: for perc_max_measured: maximum measured response of dose series
# COX2(h) = target: T2, COX2(h) (Homo sapiens, UniProt P35354); test: In vitro CEREP profiling, COX2(h); format: biochemical; settings: test compound concentration 10 uM, Enzyme and Cell-based assays
# T2 construct: purchased Eurofins Cerep (SafetyScreen44), recognised from the panel format
# T2 sequence (P35354 18-604): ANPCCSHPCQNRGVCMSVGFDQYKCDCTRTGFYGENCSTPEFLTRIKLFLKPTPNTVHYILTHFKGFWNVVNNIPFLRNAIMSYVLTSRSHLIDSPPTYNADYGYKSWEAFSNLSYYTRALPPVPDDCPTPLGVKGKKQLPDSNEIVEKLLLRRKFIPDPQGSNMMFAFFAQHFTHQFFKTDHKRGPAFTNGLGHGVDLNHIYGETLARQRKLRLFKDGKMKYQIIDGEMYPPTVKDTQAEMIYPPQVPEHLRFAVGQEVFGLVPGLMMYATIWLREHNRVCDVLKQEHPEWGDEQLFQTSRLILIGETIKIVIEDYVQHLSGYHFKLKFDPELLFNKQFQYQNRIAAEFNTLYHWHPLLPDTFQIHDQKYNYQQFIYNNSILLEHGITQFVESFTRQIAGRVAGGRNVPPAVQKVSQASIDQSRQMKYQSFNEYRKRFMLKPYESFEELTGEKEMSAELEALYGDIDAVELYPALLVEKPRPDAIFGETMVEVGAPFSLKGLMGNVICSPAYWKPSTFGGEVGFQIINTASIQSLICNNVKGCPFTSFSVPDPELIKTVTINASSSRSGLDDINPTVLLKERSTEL
# Excerpt: as §1
# PDE4D2 (h) = target: T3, PDE4D2 (h) (Homo sapiens, UniProt Q08499); test: In vitro CEREP profiling, PDE4D2 (h); format: biochemical; settings: test compound concentration 10 uM, Enzyme and Cell-based assays
# T3 construct: purchased Eurofins Cerep (SafetyScreen44), recognised from the panel format
# Excerpt: as §1
# [2] = target: T4, norepinephrine transporter (h) (Homo sapiens, UniProt P23975); test: In vitro CEREP profiling, norepinephrine transporter (h) (antagonist radioligand); format: binding; settings: test compound concentration 10 uM
# T4 construct: purchased Eurofins Cerep (SafetyScreen44), recognised from the panel format
# Excerpt: as §1
# dopamine transporter (h) = target: T5, dopamine transporter (h) (Homo sapiens, UniProt Q01959); test: In vitro CEREP profiling, dopamine transporter (h) (antagonist radioligand); format: binding; settings: test compound concentration 10 uM
# T5 construct: purchased Eurofins Cerep (SafetyScreen44), recognised from the panel format
# Excerpt: as §1
# Lck kinase (h) = target: T6, Lck kinase (h) (Homo sapiens, UniProt P06239); test: In vitro CEREP profiling, Lck kinase (h); format: biochemical; settings: test compound concentration 10 uM, Enzyme and Cell-based assays
# T6 construct: purchased Eurofins Cerep (SafetyScreen44), recognised from the panel format
# Excerpt: as §1
# A2A (h) = target: T7, A2A (h) (Homo sapiens, UniProt P29274); test: In vitro CEREP profiling, A2A (h) (agonist radioligand); format: binding; settings: test compound 10 uM
# T7 construct: purchased Eurofins Cerep (SafetyScreen44), recognised from the panel format
# Excerpt: as §1
# Protein binding = format: in vitro ADME
# Excerpt: Supplement media-1.zip/Protein_Binding.csv, table | column: fu; perc_bound; perc_free; perc_recovered
# 5-HT1A (h) = target: T8, 5-HT1A (h) (Homo sapiens, UniProt P08908); test: In vitro CEREP profiling, 5-HT1A (h) (agonist radioligand); format: binding; settings: test compound concentration 10 uM
# T8 construct: purchased Eurofins Cerep (SafetyScreen44), recognised from the panel format
# T8 sequence (P08908 1-422): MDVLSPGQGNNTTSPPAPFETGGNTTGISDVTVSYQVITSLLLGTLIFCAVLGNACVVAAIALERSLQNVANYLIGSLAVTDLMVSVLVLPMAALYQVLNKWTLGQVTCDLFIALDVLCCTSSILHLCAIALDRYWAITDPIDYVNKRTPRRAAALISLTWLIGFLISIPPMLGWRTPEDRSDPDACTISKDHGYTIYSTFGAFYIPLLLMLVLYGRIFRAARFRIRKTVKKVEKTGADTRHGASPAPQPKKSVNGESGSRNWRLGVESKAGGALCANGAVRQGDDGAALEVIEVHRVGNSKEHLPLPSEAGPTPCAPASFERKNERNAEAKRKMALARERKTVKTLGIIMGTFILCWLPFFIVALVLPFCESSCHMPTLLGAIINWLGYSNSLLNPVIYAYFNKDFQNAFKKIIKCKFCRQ
# Excerpt: as §1
# 5-HT transporter (h) = target: T9, 5-HT transporter (h) (Homo sapiens, UniProt P31645); test: In vitro CEREP profiling, 5-HT transporter (h) (antagonist radioligand); settings: test compound concentration 10 uM
# T9 construct: purchased Eurofins Cerep (SafetyScreen44), recognised from the panel format
# Excerpt: as §1
# mu (MOP) (h) = target: T10, mu (MOP) (h) (Homo sapiens, UniProt P35372); test: In vitro CEREP profiling, mu (MOP) (h) (agonist radioligand); format: binding; settings: test compound concentration 10 uM
# T10 construct: purchased Eurofins Cerep (SafetyScreen44), recognised from the panel format
# Excerpt: as §1
# [3] = read-out: perc_inhibition (% inhibition of the binding of a ligand specific for each target)
# [4] = HeLa-ACE2 SARS-CoV-2 antiviral effect without P-gp inhibitor, maximum measured response
# [5] = HeLa-ACE2 SARS-CoV-2 antiviral effect without P-gp inhibitor, maximum measured response of dose series
# [6] = HeLa-ACE2 SARS-CoV-2 antiviral effect without P-gp inhibitor, minimum measured response
# [7] = HeLa-ACE2 SARS-CoV-2 antiviral effect without P-gp inhibitor, minimum measured response of dose series
# [8] = Severe acute respiratory syndrome coronavirus 2, HeLa-ACE2
# [9] = Middle East respiratory syndrome-related coronavirus, VeroE6/TMPRSS2
# [10] = Vero E6/TMPRSS2 MERS-CoV antiviral effect with P-gp inhibitor
# [11] = read-out: perc_inhibition, % inhibition of the binding of a ligand specific for each target
# [12] = In vitro dog plasma protein binding
# [13] = In vitro fetal calf serum protein binding
# [14] = In vitro human plasma protein binding
# [15] = In vitro mouse plasma protein binding
# [16] = In vitro rat plasma protein binding
# T10 sequence (P35372 whole entry): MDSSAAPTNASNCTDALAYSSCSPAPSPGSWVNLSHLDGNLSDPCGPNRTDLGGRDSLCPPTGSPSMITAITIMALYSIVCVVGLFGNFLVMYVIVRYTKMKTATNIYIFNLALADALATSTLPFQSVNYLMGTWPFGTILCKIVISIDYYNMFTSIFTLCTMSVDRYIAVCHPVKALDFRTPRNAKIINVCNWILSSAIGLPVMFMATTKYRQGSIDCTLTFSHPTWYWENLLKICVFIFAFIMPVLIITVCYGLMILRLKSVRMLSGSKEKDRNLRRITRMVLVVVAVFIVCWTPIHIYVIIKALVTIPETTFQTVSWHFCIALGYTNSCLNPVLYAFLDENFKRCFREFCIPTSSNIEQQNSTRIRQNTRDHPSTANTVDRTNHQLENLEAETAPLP
# T9 sequence (P31645 whole entry): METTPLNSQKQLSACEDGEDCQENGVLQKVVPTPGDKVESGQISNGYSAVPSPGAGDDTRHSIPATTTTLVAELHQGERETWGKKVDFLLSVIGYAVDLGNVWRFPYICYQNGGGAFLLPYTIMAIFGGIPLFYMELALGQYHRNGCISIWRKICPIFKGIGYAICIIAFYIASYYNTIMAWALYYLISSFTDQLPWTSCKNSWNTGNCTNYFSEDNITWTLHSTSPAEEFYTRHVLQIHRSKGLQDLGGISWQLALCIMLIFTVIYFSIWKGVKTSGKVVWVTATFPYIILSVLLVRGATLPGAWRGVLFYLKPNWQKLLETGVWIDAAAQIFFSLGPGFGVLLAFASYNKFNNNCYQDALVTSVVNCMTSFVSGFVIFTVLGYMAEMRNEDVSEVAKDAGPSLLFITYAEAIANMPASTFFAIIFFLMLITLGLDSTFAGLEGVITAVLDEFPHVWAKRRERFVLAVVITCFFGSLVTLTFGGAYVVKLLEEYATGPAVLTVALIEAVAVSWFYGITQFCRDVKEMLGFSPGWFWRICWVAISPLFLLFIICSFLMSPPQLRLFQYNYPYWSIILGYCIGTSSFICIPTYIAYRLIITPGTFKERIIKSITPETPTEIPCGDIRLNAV
# T1 sequence (P08588 whole entry): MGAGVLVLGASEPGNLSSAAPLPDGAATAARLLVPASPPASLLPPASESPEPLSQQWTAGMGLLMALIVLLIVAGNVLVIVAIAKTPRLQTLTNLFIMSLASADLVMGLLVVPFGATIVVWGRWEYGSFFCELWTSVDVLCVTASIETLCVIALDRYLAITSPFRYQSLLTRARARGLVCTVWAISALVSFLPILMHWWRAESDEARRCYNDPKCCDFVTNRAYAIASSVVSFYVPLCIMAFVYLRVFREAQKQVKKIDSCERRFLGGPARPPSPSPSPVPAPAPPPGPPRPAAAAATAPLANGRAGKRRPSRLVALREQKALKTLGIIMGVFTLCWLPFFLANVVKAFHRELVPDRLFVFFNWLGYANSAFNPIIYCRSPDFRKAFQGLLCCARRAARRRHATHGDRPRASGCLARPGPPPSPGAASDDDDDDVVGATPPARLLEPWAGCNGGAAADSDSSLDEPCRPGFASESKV
# T4 sequence (P23975 whole entry): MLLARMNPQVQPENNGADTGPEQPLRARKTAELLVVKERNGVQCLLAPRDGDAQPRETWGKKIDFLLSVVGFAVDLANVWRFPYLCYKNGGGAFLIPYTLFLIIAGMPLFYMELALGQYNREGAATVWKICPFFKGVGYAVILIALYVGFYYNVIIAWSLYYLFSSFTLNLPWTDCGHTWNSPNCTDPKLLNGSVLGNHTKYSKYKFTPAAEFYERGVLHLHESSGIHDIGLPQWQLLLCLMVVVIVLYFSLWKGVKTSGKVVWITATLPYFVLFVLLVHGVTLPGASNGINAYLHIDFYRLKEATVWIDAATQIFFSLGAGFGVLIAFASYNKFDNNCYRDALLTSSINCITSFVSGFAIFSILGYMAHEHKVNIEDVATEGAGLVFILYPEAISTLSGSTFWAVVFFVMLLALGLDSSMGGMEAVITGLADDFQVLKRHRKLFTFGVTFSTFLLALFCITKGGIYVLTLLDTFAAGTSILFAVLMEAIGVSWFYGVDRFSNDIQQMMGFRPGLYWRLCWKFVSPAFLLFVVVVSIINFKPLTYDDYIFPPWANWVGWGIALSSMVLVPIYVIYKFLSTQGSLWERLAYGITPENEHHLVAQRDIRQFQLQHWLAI
# T6 sequence (P06239 whole entry): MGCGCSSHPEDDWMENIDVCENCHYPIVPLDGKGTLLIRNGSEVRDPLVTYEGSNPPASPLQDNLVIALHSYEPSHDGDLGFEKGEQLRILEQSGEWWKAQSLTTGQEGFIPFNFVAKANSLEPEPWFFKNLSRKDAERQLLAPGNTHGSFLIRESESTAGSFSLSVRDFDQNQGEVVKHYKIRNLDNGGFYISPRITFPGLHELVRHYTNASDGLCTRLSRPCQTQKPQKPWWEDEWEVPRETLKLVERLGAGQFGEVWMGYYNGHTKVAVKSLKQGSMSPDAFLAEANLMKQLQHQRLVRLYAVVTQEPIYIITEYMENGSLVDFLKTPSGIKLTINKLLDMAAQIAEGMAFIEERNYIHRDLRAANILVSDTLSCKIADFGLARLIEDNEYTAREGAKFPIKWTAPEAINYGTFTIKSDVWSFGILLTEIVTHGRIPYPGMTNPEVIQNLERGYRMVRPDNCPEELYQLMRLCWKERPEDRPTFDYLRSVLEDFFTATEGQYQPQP
# T3 sequence (Q08499 303-809): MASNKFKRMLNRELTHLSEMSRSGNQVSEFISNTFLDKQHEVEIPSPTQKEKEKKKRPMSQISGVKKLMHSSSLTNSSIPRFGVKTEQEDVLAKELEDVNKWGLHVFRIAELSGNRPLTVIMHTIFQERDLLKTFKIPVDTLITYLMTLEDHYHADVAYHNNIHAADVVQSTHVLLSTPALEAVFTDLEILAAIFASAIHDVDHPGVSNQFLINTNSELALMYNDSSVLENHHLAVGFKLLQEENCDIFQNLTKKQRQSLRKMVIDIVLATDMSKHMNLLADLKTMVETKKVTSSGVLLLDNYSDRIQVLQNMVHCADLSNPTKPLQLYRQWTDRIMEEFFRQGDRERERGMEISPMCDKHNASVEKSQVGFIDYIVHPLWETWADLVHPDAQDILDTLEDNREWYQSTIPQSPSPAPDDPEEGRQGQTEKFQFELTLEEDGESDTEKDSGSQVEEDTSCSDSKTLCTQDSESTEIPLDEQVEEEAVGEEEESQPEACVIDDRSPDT
# T5 sequence (Q01959 whole entry): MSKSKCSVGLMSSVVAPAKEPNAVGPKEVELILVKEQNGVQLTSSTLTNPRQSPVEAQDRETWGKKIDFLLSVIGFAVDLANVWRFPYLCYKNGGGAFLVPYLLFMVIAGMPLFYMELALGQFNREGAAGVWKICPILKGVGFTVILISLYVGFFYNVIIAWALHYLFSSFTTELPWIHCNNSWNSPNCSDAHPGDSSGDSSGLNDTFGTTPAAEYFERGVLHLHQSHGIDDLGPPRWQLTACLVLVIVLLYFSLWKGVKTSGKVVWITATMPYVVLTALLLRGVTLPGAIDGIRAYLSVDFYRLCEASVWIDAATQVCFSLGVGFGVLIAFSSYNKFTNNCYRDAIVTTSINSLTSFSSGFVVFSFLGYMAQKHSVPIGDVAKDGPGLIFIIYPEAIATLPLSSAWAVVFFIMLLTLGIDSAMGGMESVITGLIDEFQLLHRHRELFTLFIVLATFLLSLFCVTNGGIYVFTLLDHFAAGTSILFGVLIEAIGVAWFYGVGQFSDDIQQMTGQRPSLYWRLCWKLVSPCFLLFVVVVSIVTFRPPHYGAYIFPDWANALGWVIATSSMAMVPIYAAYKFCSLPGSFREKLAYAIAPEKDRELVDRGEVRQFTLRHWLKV
# T7 sequence (P29274 whole entry): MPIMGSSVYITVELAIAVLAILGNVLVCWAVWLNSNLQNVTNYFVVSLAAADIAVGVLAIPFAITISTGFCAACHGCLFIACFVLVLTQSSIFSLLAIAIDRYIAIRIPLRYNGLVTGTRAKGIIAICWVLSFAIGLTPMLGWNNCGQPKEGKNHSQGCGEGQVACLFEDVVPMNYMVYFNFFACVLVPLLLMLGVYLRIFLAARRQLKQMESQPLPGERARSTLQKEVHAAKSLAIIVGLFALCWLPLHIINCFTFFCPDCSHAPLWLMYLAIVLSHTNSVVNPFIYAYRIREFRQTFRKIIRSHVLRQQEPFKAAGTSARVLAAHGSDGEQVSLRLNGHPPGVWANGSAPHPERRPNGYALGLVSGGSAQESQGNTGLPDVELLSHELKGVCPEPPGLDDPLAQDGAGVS
smiles,measurement,setting,value
CC(C)C(Nc1ncnc2[nH]c(C(=O)NC3CCN(C)C3)cc12)c1ccc2c(c1)S(=O)(=O)CCC2 (centres unmarked) [ASAP-0011198],inhibition at 10 µM,beta1 (h); [3],4%
same,perc_max_measured,[1]; [4],109.068%
same,perc_max_measured,[1]; [5],108.327%
same,perc_min_measured,[1]; [6],93.8%
same,perc_min_measured,[1]; [7],87.557%
same,EC50,[1]; [8],> 20 µM
same,EC90,[1]; [8],> 20 µM
same,EC50,"[1]; Severe acute respiratory syndrome coronavirus 2, HeLa-ACE2, read-out: HelaACE2 EC50",> 20 µM
same,EC50,MERS-CoV; [9],> 5 µM
same,EC90,MERS-CoV; [9],> 5 µM
same,perc_max_measured,MERS-CoV; [10],124.089% and 106.936%
same,perc_min_measured,"MERS-CoV; Vero E6/TMPRSS2 MERS-CoV antiviral effect with P-gp inhibitor, minimum measured response of dose series",88.282% and 84.091%
same,inhibition at 10 µM,"COX2(h); read-out: perc_inhibition: % inhibition of control enzyme activity, COX2(h)",4%
same,inhibition at 10 µM,"PDE4D2 (h); read-out: perc_inhibition: % inhibition of control enzyme activity, PDE4D2 (h)",37%
same,inhibition at 10 µM,[2]; [11],-1%
same,inhibition at 10 µM,dopamine transporter (h); [11],22%
same,inhibition at 10 µM,"Lck kinase (h); read-out: perc_inhibition: % inhibition of control enzyme activity, Lck kinase (h)",15%
same,inhibition at 10 µM,A2A (h); [3],-4%
same,perc_bound,Protein binding; [12],83.5%
same,perc_free,Protein binding; [12],16.5%
same,perc_recovered,Protein binding; [12],87.93%
same,fu,Protein binding; [13],0.173
same,perc_bound,Protein binding; [13],86.0% and 82.7%
same,perc_free,Protein binding; [13],14.0% and 17.3%
same,perc_recovered,Protein binding; [13],61.17% and 107.7%
same,fu,Protein binding; [14],0.271
same,perc_bound,Protein binding; [14],74.5% and 72.9%
same,perc_free,Protein binding; [14],25.5% and 27.1%
same,perc_recovered,Protein binding; [14],81.11% and 116.7%
same,fu,Protein binding; [15],0.184
same,perc_bound,Protein binding; [15],90.1% and 81.6%
same,perc_free,Protein binding; [15],9.91% and 18.4%
same,perc_recovered,Protein binding; [15],88.65% and 93.8%
same,fu,Protein binding; [16],0.164
same,perc_bound,Protein binding; [16],87.5% and 83.6%
same,perc_free,Protein binding; [16],12.5% and 16.4%
same,perc_recovered,Protein binding; [16],93.33% and 104.0%
same,fraction unbound,"Protein binding; bovine, fetal calf serum, In vitro fetal calf serum protein binding",0.14
same,fraction unbound,"Protein binding; dog, plasma, In vitro dog plasma protein binding",0.165
same,fraction unbound,"Protein binding; human, plasma, In vitro human plasma protein binding",0.255
same,fraction unbound,"Protein binding; mouse, plasma, In vitro mouse plasma protein binding",0.099
same,fraction unbound,"Protein binding; rat, plasma, In vitro rat plasma protein binding",0.125
same,inhibition at 10 µM,5-HT1A (h); [3],14%
same,"perc_inhibition: % inhibition of the binding of a ligand specific for each target, 5-HT transporter (h) (antagonist radioligand)",5-HT transporter (h),1%
same,inhibition at 10 µM,mu (MOP) (h); [3],7%
CC(C)[C@H](Nc1ncnc2[nH]ccc12)c1ccc2c(c1)S(=O)(=O)CCC2 [ASAP-0008674],perc_inhibition (% inhibition of the binding of a ligand specific for each target),beta1 (h),11%
same,perc_max_measured,[1]; [4],158.705%
same,perc_max_measured,[1]; [5],129.029%
same,perc_min_measured,[1]; [6],84.767%
same,perc_min_measured,[1]; [7],103.942%
same,EC50,"[1]; HeLa-ACE2 SARS-CoV-2 antiviral effect without P-gp inhibitor, read-out: ec50",> 20 µM
same,EC90,"[1]; HeLa-ACE2 SARS-CoV-2 antiviral effect without P-gp inhibitor, read-out: ec90",> 20 µM
same,perc_max_measured,MERS-CoV; [10],131.878% and 83.309% and 125.339%
same,EC90,"MERS-CoV; Vero E6/TMPRSS2 MERS-CoV antiviral effect with P-gp inhibitor, read-out: ec90",> 5 µM
same,"perc_inhibition: % inhibition of control enzyme activity, COX2(h)",COX2(h),23%
same,"perc_inhibition: % inhibition of control enzyme activity, PDE4D2 (h)",PDE4D2 (h),36%
same,perc_inhibition (% inhibition of the binding of a ligand specific for each target),[2],-3%
same,perc_inhibition (% inhibition of the binding of a ligand specific for each target),dopamine transporter (h),27%
same,"perc_inhibition: % inhibition of control enzyme activity, Lck kinase (h)",Lck kinase (h),10%
same,perc_inhibition (% inhibition of the binding of a ligand specific for each target),A2A (h),11%
same,fu,Protein binding; [12],0.148
same,perc_bound,Protein binding; [12],85.2%
same,perc_free,Protein binding; [12],14.8%
same,perc_recovered,Protein binding; [12],97.58%
same,fu,Protein binding; [13],0.095
same,perc_bound,Protein binding; [13],90.5%
same,perc_free,Protein binding; [13],9.5%
same,perc_recovered,Protein binding; [13],94.23%
same,fu,Protein binding; [14],0.144
same,perc_bound,Protein binding; [14],85.6%
same,perc_free,Protein binding; [14],14.4%
same,perc_recovered,Protein binding; [14],95.79%
same,fu,Protein binding; [15],0.124
same,perc_bound,Protein binding; [15],87.6%
same,perc_free,Protein binding; [15],12.4%
same,perc_recovered,Protein binding; [15],89.46%
same,fu,Protein binding; [16],0.189
same,perc_bound,Protein binding; [16],81.1%
same,perc_free,Protein binding; [16],18.9%
same,perc_recovered,Protein binding; [16],91.14%
same,perc_inhibition (% inhibition of the binding of a ligand specific for each target),5-HT1A (h),12%
same,"perc_inhibition: % inhibition of the binding of a ligand specific for each target, 5-HT transporter (h) (antagonist radioligand)",5-HT transporter (h),0%
same,perc_inhibition (% inhibition of the binding of a ligand specific for each target),mu (MOP) (h),8%
